{"source": "ChEMBL document CHEMBL5537159", "about": "“Discovery and SAR of JTE-151: A Novel RORγ Inhibitor for Clinical Development” (J Med Chem, 2024)", "key": {"[1]": {"assay": "Cardiotoxicity in Beagle dog assessed as QTcF prolongation upto 100 mg/kg, po bid measured for 24 hrs", "format": "toxicity, organism-based, Canis lupus familiaris", "settings": "in vivo"}, "[2]": {"assay": "Tmax in human at 200 […], po administered as single dose and measured upto 144 hrs", "format": "ADME, organism-based", "settings": "in vivo"}, "[3]": {"assay": "Selectivity ratio of agonist activity at human RARalpha to inhibition of RORgamma (unknown origin)"}, "[4]": {"assay": "Elimination half life in human at 200 mg/kg, po administered as single dose and measured upto 144 hrs", "format": "ADME, organism-based", "settings": "in vivo, read-out: beta t1/2 (converted)"}, "[5]": {"assay": "Selectivity ratio of antagonist activity at human RORalpha to inhibition of RORgamma (unknown origin)"}, "[6]": {"assay": "Elimination half life in CD(SD) rat at 1 mg/kg, iv administered as single dose and measured after 24 hrs", "format": "ADME, organism-based", "settings": "in vivo, read-out: beta t1/2 (converted)"}, "[7]": {"assay": "Tmax in human at 400 […], po administered as single dose and measured upto 144 hrs", "format": "ADME, organism-based", "settings": "in vivo"}, "[8]": {"assay": "Toxicity in CHL cells assessed as chromosomal aberration at 120 to 140 ug/ml incubated for 6 hrs in presence of S9 fraction", "format": "subcellular, Cricetulus griseus", "settings": "chinese hamster, s9, 6 h, dose 120-140 µg/ml"}, "[9]": {"assay": "Elimination half life in human at 600 mg/kg, po administered as single dose and measured upto 144 hrs", "format": "ADME, organism-based", "settings": "in vivo, read-out: beta t1/2 (converted)"}, "[10]": {"assay": "Selectivity ratio of agonist activity at human PPARdelta to inhibition of RORgamma (unknown origin)"}, "[11]": {"target": "T1, Nuclear receptor ROR-gamma (Homo sapiens, UniProt P51449)", "T1 sequence (P51449 whole entry)": "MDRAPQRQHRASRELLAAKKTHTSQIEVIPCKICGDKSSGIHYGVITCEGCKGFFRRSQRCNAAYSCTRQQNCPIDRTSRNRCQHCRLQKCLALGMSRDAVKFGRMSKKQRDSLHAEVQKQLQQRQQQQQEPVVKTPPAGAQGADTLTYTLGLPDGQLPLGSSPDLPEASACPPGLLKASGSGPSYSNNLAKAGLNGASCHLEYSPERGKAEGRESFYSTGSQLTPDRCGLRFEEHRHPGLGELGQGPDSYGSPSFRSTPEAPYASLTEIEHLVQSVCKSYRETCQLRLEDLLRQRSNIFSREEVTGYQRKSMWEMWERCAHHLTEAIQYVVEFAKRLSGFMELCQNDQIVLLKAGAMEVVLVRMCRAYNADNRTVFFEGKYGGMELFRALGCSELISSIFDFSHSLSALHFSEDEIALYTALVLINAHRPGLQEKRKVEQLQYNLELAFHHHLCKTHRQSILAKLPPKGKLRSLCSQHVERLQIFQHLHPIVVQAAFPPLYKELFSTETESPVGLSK", "assay": "Inhibition of GAL4 DNA-binding domain fused RORgamma (unknown origin) transfected in CHO-K1 cells incubated for 2 days by luciferase assay", "format": "cell-based"}, "[12]": {"assay": "Selectivity ratio of antagonist activity at human PR to inhibition of RORgamma (unknown origin)"}, "[13]": {"assay": "Selectivity ratio of agonist activity at human PPARalpha to inhibition of RORgamma (unknown origin)"}, "[14]": {"assay": "Elimination half life in human at 100 […], po administered as single dose and measured upto 144 hrs", "format": "ADME, organism-based", "settings": "in vivo, read-out: beta t1/2 (converted)"}, "[15]": {"assay": "Total body clearance in Beagle dog at 1 mg/kg, iv administered as single dose and measured after 24 hrs", "format": "ADME, organism-based, Canis lupus familiaris", "settings": "in vivo"}, "D(1A) dopamine receptor": {"target": "D(1A) dopamine receptor (Homo sapiens, UniProt P21728)", "sequence (P21728 whole entry)": "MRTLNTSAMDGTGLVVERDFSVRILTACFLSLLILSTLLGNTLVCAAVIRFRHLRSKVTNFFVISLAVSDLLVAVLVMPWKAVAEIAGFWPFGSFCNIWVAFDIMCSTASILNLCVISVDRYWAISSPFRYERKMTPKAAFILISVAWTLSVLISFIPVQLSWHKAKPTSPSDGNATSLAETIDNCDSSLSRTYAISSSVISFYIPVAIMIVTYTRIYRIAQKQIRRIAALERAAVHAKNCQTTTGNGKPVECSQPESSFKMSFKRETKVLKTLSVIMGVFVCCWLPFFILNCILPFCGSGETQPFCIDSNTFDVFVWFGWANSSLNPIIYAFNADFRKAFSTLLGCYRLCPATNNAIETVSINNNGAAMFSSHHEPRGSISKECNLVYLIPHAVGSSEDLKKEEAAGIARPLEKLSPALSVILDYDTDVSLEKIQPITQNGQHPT", "assay": "Inhibition of human dopamine D1 receptor"}, "[16]": {"assay": "Selectivity ratio of antagonist activity at human ERalpha to inhibition of RORgamma (unknown origin)"}, "[17]": {"assay": "Inhibition of rat glutamate receptor"}, "[18]": {"assay": "Tmax in human at 1600 […], po administered as single dose and measured upto 144 hrs", "format": "ADME, organism-based", "settings": "in vivo"}, "[19]": {"assay": "Elimination half life in human at 1600 mg/kg, po administered as single dose and measured upto 144 hrs", "format": "ADME, organism-based", "settings": "in vivo, read-out: beta t1/2 (converted)"}, "[20]": {"target": "5-hydroxytryptamine receptor 2A (Homo sapiens, UniProt P28223)", "sequence (P28223 whole entry)": "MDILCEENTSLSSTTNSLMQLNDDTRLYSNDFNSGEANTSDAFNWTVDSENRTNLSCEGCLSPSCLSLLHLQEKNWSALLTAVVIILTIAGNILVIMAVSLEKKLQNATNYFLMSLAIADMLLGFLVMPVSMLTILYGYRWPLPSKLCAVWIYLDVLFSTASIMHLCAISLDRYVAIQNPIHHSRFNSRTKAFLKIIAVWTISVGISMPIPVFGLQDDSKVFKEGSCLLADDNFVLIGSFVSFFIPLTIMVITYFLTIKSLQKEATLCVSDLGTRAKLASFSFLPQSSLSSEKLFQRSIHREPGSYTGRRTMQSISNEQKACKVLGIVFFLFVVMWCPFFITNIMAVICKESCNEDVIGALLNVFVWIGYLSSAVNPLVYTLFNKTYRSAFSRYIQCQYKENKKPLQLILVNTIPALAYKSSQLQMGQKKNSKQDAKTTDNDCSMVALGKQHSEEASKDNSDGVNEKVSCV", "assay": "Inhibition of human 5-HT2A receptor"}, "[21]": {"assay": "Cmax in human at 30 […], po administered as single dose and measured upto 144 hrs", "format": "ADME, organism-based", "settings": "in vivo"}, "[22]": {"assay": "Selectivity ratio of agonist activity at mouse GR to inhibition of RORgamma (unknown origin)"}, "[23]": {"target": "5-hydroxytryptamine receptor 1A (Homo sapiens, UniProt P08908)", "sequence (P08908 whole entry)": "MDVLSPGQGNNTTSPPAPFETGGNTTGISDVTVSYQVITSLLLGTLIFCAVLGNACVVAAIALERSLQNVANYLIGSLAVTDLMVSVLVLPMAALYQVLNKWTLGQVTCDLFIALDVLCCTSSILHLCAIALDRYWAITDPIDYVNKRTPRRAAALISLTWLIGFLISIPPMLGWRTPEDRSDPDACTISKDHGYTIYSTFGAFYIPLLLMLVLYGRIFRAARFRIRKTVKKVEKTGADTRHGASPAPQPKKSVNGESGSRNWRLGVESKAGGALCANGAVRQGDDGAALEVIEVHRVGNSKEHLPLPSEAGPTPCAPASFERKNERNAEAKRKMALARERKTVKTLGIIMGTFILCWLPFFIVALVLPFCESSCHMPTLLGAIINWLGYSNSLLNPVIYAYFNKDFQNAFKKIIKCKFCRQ", "assay": "Inhibition of human 5-HT1A receptor"}, "[24]": {"assay": "Genotoxicity in Salmonella typhimurium TA100 at 23 to 750 ug in presence of S9 fraction by bacterial reverse mutation test", "format": "toxicity, subcellular, Salmonella enterica subsp. enterica serovar Typhimurium", "settings": "dose 23-750 µg"}, "[25]": {"assay": "Cmax in human at 1000 […], po administered as single dose and measured upto 144 hrs", "format": "ADME, organism-based", "settings": "in vivo"}, "Cytochrome P450 2D6": {"target": "Cytochrome P450 2D6 (Homo sapiens, UniProt P10635)", "sequence (P10635 whole entry)": "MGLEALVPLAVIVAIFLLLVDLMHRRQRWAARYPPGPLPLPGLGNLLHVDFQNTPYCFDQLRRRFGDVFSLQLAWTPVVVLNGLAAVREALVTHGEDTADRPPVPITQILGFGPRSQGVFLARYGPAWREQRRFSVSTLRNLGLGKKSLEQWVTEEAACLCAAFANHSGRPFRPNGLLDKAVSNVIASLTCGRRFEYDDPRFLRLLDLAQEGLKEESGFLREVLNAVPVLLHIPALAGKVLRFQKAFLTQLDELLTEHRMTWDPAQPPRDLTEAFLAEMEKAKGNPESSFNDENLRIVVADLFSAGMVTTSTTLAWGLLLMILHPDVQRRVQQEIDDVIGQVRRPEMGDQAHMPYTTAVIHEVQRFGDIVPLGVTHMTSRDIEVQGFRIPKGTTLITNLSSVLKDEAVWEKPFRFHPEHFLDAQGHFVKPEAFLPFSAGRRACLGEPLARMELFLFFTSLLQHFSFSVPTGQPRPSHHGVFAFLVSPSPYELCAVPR", "assay": "Inhibition of CYP2D6 in human liver microsomes", "format": "ADME, Microsome"}, "[26]": {"assay": "Toxicity in CHL cells assessed as chromosomal aberration at 30 to 50 ug/ml incubated for 24 hrs in absence of S9 fraction", "format": "cell-based, Cricetulus griseus", "settings": "chinese hamster, dose 30-50 µg/ml"}, "[27]": {"assay": "AUClast in human at 600 mg/kg, po administered as single dose and measured upto 144 hrs", "format": "ADME, organism-based", "settings": "in vivo"}, "Cytochrome P450 2A6": {"target": "Cytochrome P450 2A6 (Homo sapiens, UniProt P11509)", "sequence (P11509 whole entry)": "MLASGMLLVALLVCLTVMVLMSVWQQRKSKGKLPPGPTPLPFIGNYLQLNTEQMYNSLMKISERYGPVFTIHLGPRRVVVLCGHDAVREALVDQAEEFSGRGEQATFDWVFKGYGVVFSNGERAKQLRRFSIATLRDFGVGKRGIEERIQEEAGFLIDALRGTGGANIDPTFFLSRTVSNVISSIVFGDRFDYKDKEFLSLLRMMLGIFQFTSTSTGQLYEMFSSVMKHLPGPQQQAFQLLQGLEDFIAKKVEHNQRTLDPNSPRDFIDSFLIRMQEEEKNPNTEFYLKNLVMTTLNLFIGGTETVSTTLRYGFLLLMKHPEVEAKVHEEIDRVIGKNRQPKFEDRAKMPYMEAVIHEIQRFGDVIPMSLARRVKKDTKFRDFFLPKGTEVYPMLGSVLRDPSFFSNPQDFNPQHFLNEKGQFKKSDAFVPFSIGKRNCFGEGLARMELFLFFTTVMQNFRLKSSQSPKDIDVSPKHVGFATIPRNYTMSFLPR", "assay": "Inhibition of CYP2A6 in human liver microsomes", "format": "ADME, Microsome"}, "[28]": {"assay": "Inhibition of rat nitric oxide synthase"}, "[29]": {"assay": "Selectivity ratio of agonist activity at mouse LXRalpha to inhibition of RORgamma (unknown origin)"}, "Cytochrome P450 2C19": {"target": "Cytochrome P450 2C19 (Homo sapiens, UniProt P33261)", "sequence (P33261 whole entry)": "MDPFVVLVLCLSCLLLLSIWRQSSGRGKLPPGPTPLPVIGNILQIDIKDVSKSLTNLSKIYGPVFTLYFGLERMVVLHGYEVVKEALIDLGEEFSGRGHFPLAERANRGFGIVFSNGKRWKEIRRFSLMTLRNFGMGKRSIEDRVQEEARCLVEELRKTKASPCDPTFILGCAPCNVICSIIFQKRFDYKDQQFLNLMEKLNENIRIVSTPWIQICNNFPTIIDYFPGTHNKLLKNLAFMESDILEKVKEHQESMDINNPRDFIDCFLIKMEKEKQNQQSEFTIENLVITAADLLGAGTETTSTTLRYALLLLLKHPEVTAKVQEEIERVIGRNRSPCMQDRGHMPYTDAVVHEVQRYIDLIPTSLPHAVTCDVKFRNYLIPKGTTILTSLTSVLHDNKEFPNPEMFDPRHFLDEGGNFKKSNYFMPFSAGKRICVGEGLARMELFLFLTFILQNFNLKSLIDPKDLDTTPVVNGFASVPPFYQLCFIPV", "assay": "Inhibition of CYP2C19 in human liver microsomes", "format": "ADME, Microsome"}, "[30]": {"assay": "AUCinfinity in C57BL/6J mouse at 3 mg/kg, po administered as single dose and measured after 24 hrs", "format": "ADME, organism-based", "settings": "in vivo"}, "[31]": {"assay": "Genotoxicity in Salmonella typhimurium TA1537 at 47 to 1500 ug in presence of S9 fraction by bacterial reverse mutation test", "format": "toxicity, subcellular, Salmonella enterica subsp. enterica serovar Typhimurium", "settings": "dose 47-1500 µg"}, "[32]": {"assay": "Volume of distribution at steady state in C57BL/6J mouse at 1 mg/kg, iv administered as single dose and measured after 24 hrs", "format": "ADME, organism-based", "settings": "in vivo, read-out: Vdss"}, "[33]": {"target": "Voltage-gated inwardly rectifying potassium channel KCNH2 (Homo sapiens, UniProt Q12809)", "sequence (Q12809 whole entry)": "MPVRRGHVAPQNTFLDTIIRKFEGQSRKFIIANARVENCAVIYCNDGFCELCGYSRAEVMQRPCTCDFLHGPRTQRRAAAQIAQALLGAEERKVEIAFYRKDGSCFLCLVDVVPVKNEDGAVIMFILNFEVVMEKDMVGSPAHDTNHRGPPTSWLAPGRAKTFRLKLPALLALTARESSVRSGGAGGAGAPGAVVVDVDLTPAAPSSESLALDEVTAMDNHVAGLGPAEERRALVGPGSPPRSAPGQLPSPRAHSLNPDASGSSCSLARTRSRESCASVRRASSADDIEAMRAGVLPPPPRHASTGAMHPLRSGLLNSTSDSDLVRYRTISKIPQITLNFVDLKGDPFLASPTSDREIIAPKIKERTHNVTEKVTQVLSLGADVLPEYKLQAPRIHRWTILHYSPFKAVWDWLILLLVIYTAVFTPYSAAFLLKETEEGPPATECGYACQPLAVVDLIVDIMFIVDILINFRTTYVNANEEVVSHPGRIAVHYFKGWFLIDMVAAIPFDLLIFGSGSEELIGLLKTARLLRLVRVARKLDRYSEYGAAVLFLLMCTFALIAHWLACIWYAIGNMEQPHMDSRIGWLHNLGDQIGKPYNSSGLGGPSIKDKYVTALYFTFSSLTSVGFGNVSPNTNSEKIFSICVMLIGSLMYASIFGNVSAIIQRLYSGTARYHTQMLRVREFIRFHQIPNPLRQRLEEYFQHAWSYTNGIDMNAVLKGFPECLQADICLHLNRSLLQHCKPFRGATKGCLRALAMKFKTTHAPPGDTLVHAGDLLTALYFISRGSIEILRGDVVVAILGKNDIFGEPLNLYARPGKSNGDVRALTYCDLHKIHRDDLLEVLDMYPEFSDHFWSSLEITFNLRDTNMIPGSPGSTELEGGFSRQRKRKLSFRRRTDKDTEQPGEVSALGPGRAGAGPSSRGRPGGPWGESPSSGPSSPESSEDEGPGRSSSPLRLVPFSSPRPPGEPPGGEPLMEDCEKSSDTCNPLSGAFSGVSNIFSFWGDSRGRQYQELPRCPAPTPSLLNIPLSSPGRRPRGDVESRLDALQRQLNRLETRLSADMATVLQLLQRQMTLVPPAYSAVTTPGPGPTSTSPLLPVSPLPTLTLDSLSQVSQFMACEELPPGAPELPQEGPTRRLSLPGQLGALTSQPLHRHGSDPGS", "assay": "Inhibition of hERG transfected in HEK293 cells by whole cell patch-clamp method", "format": "toxicity, cell-based"}, "[34]": {"assay": "Selectivity ratio of antagonist activity at human FXR to inhibition of RORgamma (unknown origin)"}, "[35]": {"assay": "AUClast in human at 200 mg/kg, po administered as single dose and measured upto 144 hrs", "format": "ADME, organism-based", "settings": "in vivo"}, "[36]": {"assay": "Genotoxicity in Salmonella typhimurium TA100 at 23 to 750 ug in absence of S9 fraction by bacterial reverse mutation test", "format": "toxicity, Salmonella enterica subsp. enterica serovar Typhimurium", "settings": "in vivo; dose 23-750 µg"}, "[37]": {"target": "Amine oxidase [flavin-containing] B (Homo sapiens, UniProt P27338)", "sequence (P27338 whole entry)": "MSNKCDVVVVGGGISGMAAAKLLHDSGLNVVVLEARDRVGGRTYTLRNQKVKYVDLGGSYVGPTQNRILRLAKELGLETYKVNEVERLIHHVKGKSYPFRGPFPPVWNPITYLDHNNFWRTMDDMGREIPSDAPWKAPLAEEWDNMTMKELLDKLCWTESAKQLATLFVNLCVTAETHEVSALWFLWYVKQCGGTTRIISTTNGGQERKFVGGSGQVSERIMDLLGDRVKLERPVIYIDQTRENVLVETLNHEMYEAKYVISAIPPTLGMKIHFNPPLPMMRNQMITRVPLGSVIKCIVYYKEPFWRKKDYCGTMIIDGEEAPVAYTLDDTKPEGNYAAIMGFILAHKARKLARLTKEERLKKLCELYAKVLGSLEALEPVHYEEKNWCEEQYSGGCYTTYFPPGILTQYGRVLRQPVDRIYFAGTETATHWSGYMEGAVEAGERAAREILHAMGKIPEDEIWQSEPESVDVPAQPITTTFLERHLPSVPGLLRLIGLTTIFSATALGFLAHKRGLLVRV", "assay": "Inhibition of human MAO-B"}, "[38]": {"assay": "Selectivity ratio of agonist activity at human AR to inhibition of RORgamma (unknown origin)"}}, "data": [{"smiles": "Cc1ccc(NC(=O)C[C@H](CCC(=O)O)c2noc([C@H]3C[C@@H](CC(C)(C)C)C3)c2C2CC2)c(Cl)c1", "values": [{"measurement": "Activity", "setting": "[1]", "result": "Non-Toxic"}, {"measurement": "Tmax", "setting": "[2]", "result": 3.25, "unit": "h"}, {"measurement": "Selectivity ratio", "setting": "[3]", "result": "> 100"}, {"measurement": "half-life", "setting": "[4]", "result": 12.4, "unit": "h"}, {"measurement": "Selectivity ratio", "setting": "[5]", "result": "> 100"}, {"measurement": "half-life", "setting": "[6]", "result": 3, "unit": "h"}, {"measurement": "Tmax", "setting": "[7]", "result": 3, "unit": "h"}, {"measurement": "Activity", "setting": "[8]", "result": "Non-Toxic"}, {"measurement": "half-life", "setting": "[9]", "result": 7.33, "unit": "h"}, {"measurement": "Selectivity ratio", "setting": "[10]", "result": "> 100"}, {"measurement": "EC50", "setting": "[11]", "result": 0.013, "unit": "µM"}, {"measurement": "Selectivity ratio", "setting": "[12]", "result": "> 100"}, {"measurement": "Selectivity ratio", "setting": "[13]", "result": "> 100"}, {"measurement": "half-life", "setting": "[14]", "result": 13.2, "unit": "h"}, {"measurement": "clearance", "setting": "[15]", "result": 0.5, "unit": "mL/min/kg"}, {"measurement": "IC50", "setting": "D(1A) dopamine receptor", "result": 6.2, "unit": "µM"}, {"measurement": "Selectivity ratio", "setting": "[16]", "result": "> 100"}, {"measurement": "IC50", "setting": "[17]", "result": "> 10", "unit": "µM"}, {"measurement": "Tmax", "setting": "[18]", "result": 3.54, "unit": "h"}, {"measurement": "half-life", "setting": "[19]", "result": 10.7, "unit": "h"}, {"measurement": "IC50", "setting": "[20]", "result": "> 10", "unit": "µM"}, {"measurement": "Cmax", "setting": "[21]", "result": 1220, "unit": "ng/mL"}, {"measurement": "Selectivity ratio", "setting": "[22]", "result": "> 100"}, {"measurement": "IC50", "setting": "[23]", "result": "> 10", "unit": "µM"}, {"measurement": "Activity", "setting": "[24]", "result": "Non-Toxic"}, {"measurement": "Cmax", "setting": "[25]", "result": 38100, "unit": "ng/mL"}, {"measurement": "IC50", "setting": "Cytochrome P450 2D6", "result": "> 10", "unit": "µM"}, {"measurement": "Activity", "setting": "[26]", "result": "Non-Toxic"}, {"measurement": "AUC(0-t) at 144 h", "setting": "[27]", "result": 140000, "unit": "ng·h/mL"}, {"measurement": "IC50", "setting": "Cytochrome P450 2A6", "result": "> 10", "unit": "µM"}, {"measurement": "IC50", "setting": "[28]", "result": "> 10", "unit": "µM"}, {"measurement": "Selectivity ratio", "setting": "[29]", "result": "> 100"}, {"measurement": "IC50", "setting": "Cytochrome P450 2C19", "result": "> 10", "unit": "µM"}, {"measurement": "AUC(0-inf)", "setting": "[30]", "result": 173, "unit": "µM·h"}, {"measurement": "Activity", "setting": "[31]", "result": "Non-Toxic"}, {"measurement": "Vd", "setting": "[32]", "result": 0.16, "unit": "L/kg"}, {"measurement": "IC50", "setting": "[33]", "result": 7.4, "unit": "µM"}, {"measurement": "Selectivity ratio", "setting": "[34]", "result": "> 100"}, {"measurement": "AUC(0-t) at 144 h", "setting": "[35]", "result": 49500, "unit": "ng·h/mL"}, {"measurement": "Activity", "setting": "[36]", "result": "Non-Toxic"}, {"measurement": "IC50", "setting": "[37]", "result": "> 10", "unit": "µM"}, {"measurement": "Selectivity ratio", "setting": "[38]", "result": "> 100"}]}]}
